# Results as given in paper PMC10342533, “Novel Tetrazole Derivatives Targeting Tubulin Endowed with Antiproliferative Activity against Glioblastoma Cells” (International Journal of Molecular Sciences, 2023).
# Tests used:
# U87 MG (glioblastoma) = experiment: Cell growth inhibition, MTT assay, U87 MG; format: cell-based; details: Homo sapiens, U-87 MG
# Method: (§1) The ability of the synthesized compounds to inhibit the cell proliferation of human cancer cell lines was assayed by measuring cell viability through the use of the MTT method 72 h after treatment. For this purpose, representative cell lines of the most frequent kinds of cancer were selected, including the following: HeLa (cervix epithelioid carcinoma), MCF7 (breast adenocarcinoma), U87 MG (glioblastoma), T98G (temozolomide resistant glioblastoma), HepG2 (hepatocellular carcinoma), HCT8 (colorectal carcinoma), and HT-29 (colon adenocarcinoma).
# (§2) The cell lines were obtained from ATTC (Manassas, VA, USA). […] The cells were periodically tested for Mycoplasma infection by using a MycoAlert kit (Lonza, Norwest, Australia), and only Mycoplasma-free cells were used in the experiments.
# (§3) Then, every compound was added (10 µL/well) to a final concentration of 10 µM. Untreated cells were used as negative controls. The antiproliferative activity of compounds was measured 72 h after drug exposure through the MTT assay. […] For this purpose, compounds were used at different concentrations, ranging from 10^−10 to 10^−2 M. Measurements were performed in triplicate, and each experiment was repeated three times. The IC50 values were determined using Origin software (version 9.6, OriginLab, Washington, DC, USA).
# [1] = system: HCT8 (colorectal carcinoma); experiment: Cell growth inhibition, MTT assay, HCT8; format: cell-based; details: Homo sapiens
# Method: as §1, §2, §3
# [2] = Aqueous solubility, shake-flask method, phosphate buffer pH 7.4; format: physicochemical; details: thermodynamic from solid, phosphate buffer pH 7.4, shake-flask, mean ± SD of three experiments
# Method: The aqueous solubility of tetrazole derivatives was determined by the shaking flask methodology in phosphate buffer at pH 7.4, microfiltration, and quantification of the saturated solutions via UV spectroscopy. […] The introduction of polar groups on the 3-indole position was favorable since the most soluble compounds were the oximes 16–19 (38–53 µg/mL), followed by the carbaldehyde series 12–15 (33–45 µg/mL), and the carbonitrile derivatives (25–40 µg/mL), whereas the unsubstituted indoles 8–11 were the least soluble series (19–35 µg/mL).
# The aqueous solubility of the compounds was determined using the saturation shake-flask method. First, calibration lines at the maximum wavelength of absorbance were determined for each compound. Then, 5 mg of each compound was suspended in 500 µL of pH 7.4 buffer, and the resulting mixture was shaken for 72 h at room temperature and filtrated over a […] filter to remove the insoluble fraction. The concentration of the compound in the supernatant (saturated solution) was determined by measuring UV absorbance at the maximum wavelength of absorbance and interpolation in the calibration line. A Helios Alfa Spectrophotometer was used for the UV measurements. The aqueous solubility values are given as the average of three independent experiments.
# [3] = system: MCF7 (breast adenocarcinoma); experiment: Cell growth inhibition, MTT assay, MCF7; format: cell-based; details: Homo sapiens
# Method: as §1, §2, §3
# [4] = system: T98G (temozolomide resistant glioblastoma); experiment: Cell growth inhibition, MTT assay, T98G; format: cell-based; details: Homo sapiens
# Method: as §1, §2, §3
# [5] = target: T1, microtubular protein isolated from calf brains (bovine brain tubulin) (Bos taurus, UniProt P81947+Q6B856); experiment: Tubulin polymerization inhibition (TPI); format: biochemical; details: in vitro tubulin polymerization, mean ± SD
# T1 construct: from tissue; host or cells: calf (bovine) brain
# T1 sequence (Q6B856 whole entry): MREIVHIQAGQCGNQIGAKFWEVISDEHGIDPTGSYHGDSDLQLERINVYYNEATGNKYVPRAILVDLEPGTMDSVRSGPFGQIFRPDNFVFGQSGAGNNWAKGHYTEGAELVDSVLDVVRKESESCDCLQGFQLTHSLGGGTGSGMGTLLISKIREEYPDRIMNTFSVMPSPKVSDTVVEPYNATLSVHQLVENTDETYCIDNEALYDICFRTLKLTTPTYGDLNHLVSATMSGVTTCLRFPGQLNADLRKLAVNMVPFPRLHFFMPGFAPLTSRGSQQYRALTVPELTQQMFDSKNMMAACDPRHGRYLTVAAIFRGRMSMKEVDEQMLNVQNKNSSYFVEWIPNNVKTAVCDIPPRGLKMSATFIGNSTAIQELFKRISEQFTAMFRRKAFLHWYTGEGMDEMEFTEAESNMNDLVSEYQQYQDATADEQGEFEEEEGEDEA
# T1 sequence (P81947 whole entry): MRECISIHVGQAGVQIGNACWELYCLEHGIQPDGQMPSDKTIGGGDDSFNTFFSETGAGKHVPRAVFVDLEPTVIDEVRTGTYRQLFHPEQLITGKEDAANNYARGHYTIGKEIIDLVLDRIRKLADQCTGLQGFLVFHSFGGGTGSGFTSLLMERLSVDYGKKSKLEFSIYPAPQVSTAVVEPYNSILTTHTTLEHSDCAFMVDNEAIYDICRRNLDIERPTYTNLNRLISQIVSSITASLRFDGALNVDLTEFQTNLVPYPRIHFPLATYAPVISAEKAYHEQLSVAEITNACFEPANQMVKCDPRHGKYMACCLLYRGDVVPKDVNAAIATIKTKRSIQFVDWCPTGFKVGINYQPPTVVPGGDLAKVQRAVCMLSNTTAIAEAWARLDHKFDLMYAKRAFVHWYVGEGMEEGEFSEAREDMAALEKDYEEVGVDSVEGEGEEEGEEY
# Method: We evaluated the capacity of the new synthesized compounds to inhibit the polymerization of microtubular protein isolated from calf brains. The assays were performed by taking absorbance measurements to quantify the amount of polymer mass formed in the presence (or absence; negative controls) of the compounds.
# Bovine brain tubulin was isolated as previously described by following a modified version of the Shelanski method. The protein was stored at −80 °C, and its concentration was determined by employing the Bradford method before each use. […] Tubulin polymerization, caused when heating the samples, was accompanied by an increase in the absorbance (at 450 nm) of the sample that was monitored by using a Helios α spectrophotometer. […] Measurements were performed in triplicate in two independent experiments using microtubular proteins from different preparations.
# [6] = system: HT-29 (colon adenocarcinoma); experiment: Cell growth inhibition, MTT assay, HT-29, without or with verapamil; format: cell-based, human
# Method: as §1
# Multidrug resistance (MDR) proteins, especially P-glycoprotein (P-gp), are often involved in resistance mechanisms affecting tubulin-binding drugs that are frequently related to the failure of cancer therapies. […] These pumps are also part of the blood–brain barrier.
# as §2, §3
# [7] = system: HeLa (cervix epithelioid carcinoma); experiment: Cell growth inhibition, MTT assay, HeLa; format: cell-based; details: Homo sapiens
# Method: as §1, §2, §3
# [8] = system: HEK-293 (embryonic kidney); experiment: Cell growth inhibition, MTT assay, non-tumor HEK-293; format: cell-based; details: Homo sapiens
# Method: The ability of the synthesized compounds to inhibit the cell proliferation of human cancer cell lines was assayed by measuring cell viability through the use of the MTT method 72 h after treatment. For this purpose, representative cell lines of the most frequent kinds of cancer were selected, including the following: HeLa (cervix epithelioid carcinoma), MCF7 (breast adenocarcinoma), U87 MG (glioblastoma), T98G (temozolomide resistant glioblastoma), HepG2 (hepatocellular carcinoma), HCT8 (colorectal carcinoma), and HT-29 (colon adenocarcinoma). […] The compounds were also tested against the non-tumor HEK-293 cells to study their selectivity toward cancer cells. […] The cell lines were obtained from ATTC (Manassas, VA, USA). […] The cells were periodically tested for Mycoplasma infection by using a MycoAlert kit (Lonza, Norwest, Australia), and only Mycoplasma-free cells were used in the experiments. […] Louis, MO, USA), which was dissolved in PBS at 5 mg/mL in accordance with the manufacturer's instructions. […] Untreated cells were used as negative controls. The antiproliferative activity of compounds was measured 72 h after drug exposure through the MTT assay. […] For this purpose, compounds were used at different concentrations, ranging from 10^-10 to 10^-2 M. Measurements were performed in triplicate, and each experiment was repeated three times. The IC50 values were determined using Origin software (version 9.6, OriginLab, Washington, DC, USA).
# [9] = system: HepG2 (hepatocellular carcinoma); experiment: Cell growth inhibition, MTT assay, HepG2; format: cell-based; details: Homo sapiens
# Method: as §1, §2, §3
# [10] = HCT-8, 72 h after drug exposure
# [11] = Homo sapiens, HT-29, 72 h after drug exposure
# [12] = Homo sapiens, HT-29, mean ± SD, Table S1
# [13] = mean ± SD, Table S1, in the presence of verapamil (10 µM)
# [14] = HEK293, 72 h, non-tumorigenic cell line
Structure (SMILES),IC50 (U87 MG (glioblastoma); 72 h after drug exposure) [nM],"IC50 (U87 MG (glioblastoma); mean ± SD, Table S1) [nM]","IC50 [1, 10] [nM]",solubility at 72 h [2] [µg/mL],IC50 ([3]; 72 h after drug exposure) [nM],"IC50 ([3]; mean ± SD, Table S1) [nM]","IC50 ([4]; 72 h, 72 h after drug exposure) [nM]","IC50 ([4]; mean ± SD, Table S1) [nM]",IC50 [5] [nM],"IC50 [6, 11] [nM]","IC50 [6, 12] [nM]","IC50 [6, 13] [nM]",IC50 ([7]; 72 h after drug exposure) [nM],"IC50 ([7]; mean ± SD, Table S1) [nM]",melting point [°C],IC50 ([9]; 72 h after drug exposure) [nM],"IC50 ([9]; mean ± SD, Table S1) [nM]","IC50 ([1]; HCT-8, mean ± SD, Table S1) [nM]","IC50 [8, 14] [nM]","IC50 ([8]; HEK293, heading: IC50 HEK-293, mean ± SD, Table S1, non-tumorigenic cell line) [nM]"
"CSc1cc(-c2nnnn2-c2ccc3c(ccn3C)c2)cc(SC)n1 [Compound 11, 5-(5-(2,6-bis(methylsulfanyl)pyridin-4-yl)-1H-tetrazol-1-yl)-1-methyl-1H-indole]",209,209.3 ± 1.9,236,30.7 ± 0.3,240,240.2 ± 2,219,219 ± 2.2,3800 ± 100,255,255 ± 2.6,257 ± 3,233,233.1 ± 1.4,160 to 161,227,227 ± 2.5,–,6820,–
"COc1cc(-c2nnnn2-c2ccc3c(c2)c(C=NO)cn3C)cc(Cl)n1 [Compound 17, 5-(5-(2-chloro-6-methoxypyridin-4-yl)-1H-tetrazol-1-yl)-1-methyl-1H-indole-3-carbaldehyde oxime]",155,155.2 ± 1.3,227,53 ± 0.3,215,–,181,181.4 ± 1.5,3800 ± 100,238,–,230 ± 2.5,220,220.2 ± 1.9,–,229,–,–,7250,–
"Cn1cc(C#N)c2cc(-n3nnnc3-c3cc(Cl)nc(Cl)c3)ccc21 [Compound 20, 5-(5-(2,6-dichloropyridin-4-yl)-1H-tetrazol-1-yl)-1-methyl-1H-indole-3-carbonitrile]",522,522.1 ± 3.1,628,25.3 ± 0.1,631,631.4 ± 4.9,555,555.4 ± 4.2,6200 ± 300,679,679.4 ± 4,682.3 ± 6.3,625,625.4 ± 4.2,–,634,634.5 ± 5.6,–,> 10000,> 10000
"CSc1cc(-c2nnnn2-c2ccc3c(c2)c(C=O)cn3C)cc(SC)n1 [Compound 15, 5-(5-(2,6-bis(methylsulfanyl)pyridin-4-yl)-1H-tetrazol-1-yl)-1-methyl-1H-indole-3-carbaldehyde]",115,115 ± 1.4,141,41.2 ± 0.4,130,130.1 ± 1.1,122,122.5 ± 1.2,3500 ± 200,244,244.1 ± 1.8,242 ± 2.5,144,144 ± 1.7,207 to 208,137,137 ± 1.5,141.3 ± 1,6480,–

# Stronger by IC50 (U87 MG (glioblastoma); 72 h after drug exposure), values ahead:
IC50 (U87 MG (glioblastoma); 72 h after drug exposure) [nM],"IC50 (U87 MG (glioblastoma); mean ± SD, Table S1) [nM]","IC50 [1, 10] [nM]",solubility at 72 h [2] [µg/mL],IC50 ([3]; 72 h after drug exposure) [nM],"IC50 ([3]; mean ± SD, Table S1) [nM]","IC50 ([4]; 72 h, 72 h after drug exposure) [nM]","IC50 ([4]; mean ± SD, Table S1) [nM]",IC50 [5] [nM],"IC50 [6, 11] [nM]","IC50 [6, 12] [nM]","IC50 [6, 13] [nM]",IC50 ([7]; 72 h after drug exposure) [nM],"IC50 ([7]; mean ± SD, Table S1) [nM]",melting point [°C],IC50 ([9]; 72 h after drug exposure) [nM],"IC50 ([9]; mean ± SD, Table S1) [nM]","IC50 ([1]; HCT-8, mean ± SD, Table S1) [nM]",Structure (SMILES),"IC50 [8, 14] [nM]","IC50 ([8]; HEK293, heading: IC50 HEK-293, mean ± SD, Table S1, non-tumorigenic cell line) [nM]"
55,55.4 ± 0.4,50,45.3 ± 0.4,65,65.4 ± 0.5,54,54.1 ± 0.3,2800 ± 200,64,64.2 ± 0.4,67.3 ± 0.6,57,57.5 ± 0.3,214 to 215,55,55.3 ± 0.2,50.1 ± 0.4,"COc1cc(-c2nnnn2-c2ccc3c(c2)c(C=O)cn3C)cc(Cl)n1 [Compound 13, 5-(5-(2-chloro-6-methoxypyridin-4-yl)-1H-tetrazol-1-yl)-1-methyl-1H-indole-3-carbaldehyde]",3720,–
32,32.4 ± 0.2,49,19.3 ± 0.1,43,43.2 ± 0.4,41,–,2800 ± 100,–,52.3 ± 0.4,52.4 ± 0.2,45,45.1 ± 0.3,–,49,49.1 ± 0.5,49.4 ± 0.3,"Cn1ccc2cc(-n3nnnc3-c3cc(Cl)nc(Cl)c3)ccc21 [Compound 8, 5-(5-(2,6-dichloropyridin-4-yl)-1H-tetrazol-1-yl)-1-methyl-1H-indole]",4720,–
48,48.1 ± 0.4,75,35.4 ± 0.2,69,69.3 ± 0.5,54,54.4 ± 0.5,3100 ± 200,81,81.1 ± 0.5,80.2 ± 0.6,72,72.5 ± 0.4,–,70,70.5 ± 0.5,75.4 ± 0.6,"COc1cc(-c2nnnn2-c2ccc3c(ccn3C)c2)cc(Cl)n1 [Compound 9, 5-(5-(2-chloro-6-methoxypyridin-4-yl)-1H-tetrazol-1-yl)-1-methyl-1H-indole]",5200,–
